According to patent US20040082554A1, “Neuroactive steroid derivatives and method of use” (priority 2003, published 2004):
“Also recorded” adds a separate entry of the source.

Assays:
[1] = test system: NMDA receptor; test: NMDA-induced striatal dopamine release, in vivo microdialysis; parameters: species or system rat
Method: In vivo Microdialysis. Prior to surgery the animals were anesthetized with sodium pentobarbital (50 mg/kg, i.p) and placed in a stereotaxic apparatus (David Kopf Instruments). A rostro-caudal incision was then made to expose the dorsal surface of the skull. A hole was drilled in the skull above the striatum with a stereotaxic drill (+0.5 mm A/P and +2.9 mm M/L relative to bregma, (Paxinos and Watson, 1997). Two other holes were drilled in the skull where screws were secured. A dialysis guide cannula (CMA Microdialysis; Acton, Mass.) was lowered 3 mm ventrally and was then secured to the skull with dental cement. All rats were housed in individual cages following surgery.
No less than two days after surgery, the rats were briefly anesthetized with isoflurane to facilitate the removal of the dummy from the guide cannula and insertion of a microdialysis probe (CMA 10, dialysis membrane length of 2 mm of polycarbonate, with a molecular weight cut off of 20 kD) into the striatum. Animals were allowed to recover for 15 min prior to the initiation of the experiment following probe insertion. Artificial cerebrospinal fluid (aCSF) was pumped through the dialysis probe at a rate of 2 μl/min. Twelve 20 min samples were collected over 240 min and immediately stored at −20° C. The first six 20 min samples were collected to establish the baseline concentration of dopamine. […] At this point the perfusate for the DMSO group was changed from aCSF to one of the following solutions: NMDA (1 mM) or NMDA (1 mM) plus D-AP5 (100-200 μM). The perfusate for the steroid group was switched from aCSF to NMDA (1 mM). After collection of sample 7, the perfusate was switched back to aCSF and 5 more 20 min samples were collected. Upon termination of the experiment, samples were stored at −80° C. until analysis.
All samples were analyzed using high pressure liquid chromatography (HPLC) with electrochemical detection (ESA; Chelmsford, Mass.). The mobile phase consisted of 50 mM Na2HPO4, 20 mM citric acid, 1.5 mM heptanosulfonic acid, 0.1 mM EDTA, and 5% methanol at pH 4.0. The dopamine was separated on a 15 cm reverse phase C-18 column (Alltech; Deerfield, Ill.) and oxidized at a potential of 175 mV. Dopamine concentrations per sample were normalized to an external standard curve and plotted as percentage change from baseline.

[2] = test system: mice; test: Tail flick test (latency to remove the tail from the light source); type: in vivo; settings: for dose dependence of tail flick latency: mice, 5, 10 or 15 mg/kg i.p., tested every 10 min for 120 min
Method: FIG. 9. […] Following the injection the mice were tested for every 10 min for 120 min. The latency to remove the tail from the light source was used as a measure of analgesia. […] The values are mean+SEM for 10-15 mice for each group. Data were analyzed using a one-way ANOVA followed by Fisher's LSD.* Denotes significance compared to control.
FIG. 10. […] Mice were injected with PACME (5, 10 or 15 mg/kg). Following the injection the mice were tested for every 10 min for 120 min. The latency to remove the tail from the light source was used as a measure of analgesia. […] Data were analyzed using a one-way ANOVA followed by Fisher's LSD. The values are mean±SEM for 10-15 mice for each group.* Denotes significance compared to control.
The data were analyzed using a one-way ANOVA followed by Fisher's LSD.

[3] = test system: rats; test: Cocaine sensitization (horizontal activity after daily cocaine injections); type: in vivo, rat
Method: Cocaine Sensitization. Rats were habituated to the photocell apparatus (AccuScan Instruments; Columbus, Ohio) for two hours and administered saline (i.p.) one day prior to the start of the experiment. On the first day of the experiment, rats were rehabituated to the behavior boxes for one hour prior to the start of the experiment. […] Horizontal activity was measured for 2 hours after every cocaine injection. Saline-cocaine or 3α5βHS-cocaine were administered daily on 7 consecutive days.

[4] = test system: NMDA receptors; settings: in vitro studies, Park-Chung et al., 1994; cited from earlier work
[5] = test system: NMDA receptor; test: Behavioral hyperactivity (horizontal activity) induced by intra-striatal microinjection of NMDA; type: in vivo, rat
Method: Microinjection Experiments. Rats were anesthetized with sodium pentobarbital (50 mg/kg, i.p.) and placed in a stereotaxic apparatus (David Kopf Instruments). A rostro-caudal incision was then made to expose the dorsal surface of the skull. Two bilateral holes were drilled above the striatum (+1.0 mm A/P, +3.0 mm M/L, −3.0 mm D/V relative to bregma, Paxinos and Watson, 1997) and guide cannulae (9 mm, 24 gauge) were implanted and fastened to the skull using screws and dental cement. All rats were housed in individual cages following surgery. Three days post surgery rats were habituated to the photocell apparatus (AccuScan Instruments; Columbus, Ohio) for two hours. On the day of the experiment rats were rehabituated for one hour prior to the start of the experiment. […] The animals were returned to the behavior boxes and activity was monitored continuously for 60 min.
Horizontal activity was measured in 5 min blocks for 60 min immediately following microinjection. The data were analyzed with a mixed factors analysis of variance (ANOVA) with repeated measures over time in FIG. 4A. […] The data in FIG. 4B represent the 10 min time point from FIG. 4A and was analyzed using a one-way ANOVA.

NC(CCCP(=O)(O)O)C(=O)O [D-AP5]
effect on NMDA-induced increase in extracellular striatal dopamine ([1]; 100 μM or 200 μM co-perfused with 1 mM NMDA): inhibited; also recorded: attenuated in a dose-dependent manner

CC(=O)[C@H]1CC[C@H]2[C@@H]3CC[C@@H]4C[C@H](OCC(=O)O)CC[C@]4(C)[C@H]3CC[C@]12C [PACME, pregnanolone carboxy methyl ether]
tail flick latency at 90 and 120 min ([2]; PACME 10 mg/kg): increased the latency
analgesia compared to control (pair-wise analysis) ([2]; PACME 7 and 10 mg/kg, at 20, 30, 40, 60 min following injection): significant levels of analgesia
lengthening of tail flick latency relative to cut-off time ([2]; PACME, dose not stated, cut-off time 10 seconds): near maximal lengthening of the latency time
dose dependence of tail flick latency [2]: increased the latency to remove the tail from the light source dose-dependently
duration of analgesic effect compared with morphine (2 mg/kg, s.c.) ([2]; tail flick, mice): longer lasting
analgesia compared with morphine ([2]; tail flick, mice, PACME vs morphine 2 mg/kg s.c.): analgesia similar to that of morphine

CN1CC[C@]23c4c5ccc(O)c4O[C@H]2[C@@H](O)C=C[C@H]3[C@H]1C5 [morphine, reference compound]
time of greatest analgesic effect following injection ([2]; morphine 2 mg/kg s.c.): 20 min
analgesia compared to control (pair-wise analysis) ([2]; morphine 2 mg/kg s.c., from 20 min to 60 or 90 min following injection): significant levels of analgesia

CC(=O)[C@H]1CC[C@H]2[C@@H]3CC[C@@H]4C[C@H](O)CC[C@]4(C)[C@H]3CC[C@]12C [pregnanolone]
effect on NMDA-induced increase in extracellular striatal dopamine ([1]; 160 μg/kg i.p. (sub-sedative dose)): had no effect
effect on NMDA-induced increase in extracellular striatal dopamine ([1]; 160 μg/kg i.p. (sub-sedative dose), listed as Pregnanolone): no influence

pregnanolone hemisuccinate [3α5βHS]
effect on development of behavioral sensitization to cocaine ([3]; 10 mg/kg i.p. 10 min prior to each of 7 daily cocaine injections (15 mg/kg i.p.)): inhibits the initiation of behavioral sensitization to cocaine; also recorded: inhibited the development of behavioral sensitization to cocaine
effect on behavioral hyperactivity induced by saline administration or an acute cocaine injection ([3]; highest dose used): had no effect
tail flick latency at 90 and 120 min ([2]; 3α5βHS 15 mg/kg, compared to the other groups): effective in increasing the latency
analgesia compared to control (pair-wise analysis) ([2]; 10 and 15 mg/kg i.p., at 20, 30, 40, 60, 90 min): significant levels of analgesia
dose dependence of tail flick latency [2]: dose-dependent increase in tail flick latency; also recorded: increased the latency to remove the tail from the light source dose-dependently
duration of analgesic effect compared with morphine (2 mg/kg, s.c.) ([2]; tail flick, mice): longer lasting
effect on NMDA-induced increase in extracellular striatal dopamine ([1]; 5, 10 and 20 mg/kg i.p., 20 and 40 min following NMDA perfusion): inhibits NMDA-induced dopamine release; also recorded: blocked
EC50 for inhibition of NMDA-induced dopamine release ([1]; i.p. injection, 1 mM NMDA perfusion, at 20 min): 4 mg/kg
action on NMDA receptors in vitro [4]: inhibits NMDA receptors
sedation (saline+3α5βHS vs saline+vehicle horizontal activity) ([5]; 10 mg/kg i.p., any time point): did not induce sedation
effect on NMDA-induced behavioral activation (horizontal activity) ([5]; 1 and 10 mg/kg i.p. 10 min prior to intra-striatal NMDA, 10 min time point): decrease in horizontal activity; also recorded: blocked
